In patent publication US5780307A, “Immunosuppressive drug binding proteins and use” (priority 1996, dated 1998):
pIC50, pKd: −log10 of the molar value. Several values for one entry are separate records, joined by “and”; a condition that tells them apart may be missing. Identical values can stand only once. Like-named read-outs stand apart in the source and are kept apart here. Starred links: 1 amine or outer side, 2 acyl side, 3 side chain; linkers in the order of their positions; H or OH if unused. Residues, ends and D or L forms follow the SMILES beside them. *: point of attachment. pNA = O=[N+]([O-])c1ccc(N*)cc1; Suc = O=C(CCC(=O)[*:2])[*:1]

Assays:
[1] = tested on: purified 50-54 kDa binding protein (JURKAT cells); assay: Binding competition curves, purified 50-54 kDa binding protein, LH-20 separation
Description: Binding of [^3 H-dihydro]-FK506 to this protein was inhibited in a dose-dependent manner by rapamycin (B50 =0. 1 nM), whereas binding of [^3 H]-CSA to this protein was not affected by rapamycin at concentrations as high as 300 nM.

[2] = tested on: JURKAT cell cytosol protein fractions; assay: Binding and competition in JURKAT cytosol protein fractions; design: competition for CsA binding to 16-18 kDa and 50-54 kDa fractions / inhibition of [3H-dihydro]-FK-506 binding in all fractions: unit of the concentration uncertain
Description: This fraction (3.02 mg in 2.7 mL) was then passed through a BioSil-125 HPLC column at a flow rate of 1.0 mL/minute of 10 mM phosphate buffer, pH 6.8. Those fractions around the expected molecular weight (around 50 kDa) were tested for binding to [^3 H]

[3] = tested on: 34-37 kDa immunophilin (Jurkat cells); assay: Radioreceptor assay / Scatchard analysis, purified 34-37 kDa immunophilin; type: binding
Description: Receptor density (Bmax), affinity (Kd) and Hill coefficients (nH) were obtained using EBDA and Ligand computer programs. Radioreceptor assay: The radioreceptor assay was done in a final volume of 250 μl. […] To assess total binding, 25 μL of 50 % ethanol alone was added to maintain a constant level of ethanol in the reaction. 100-150 μL of 5 mM phosphate buffer, pH 6.8, containing 0.2% Tween 20, was added. 2-5 μg protein solution in 50-100 μL was added to obtain a final reaction volume of 250 μL. Following a 20 minute incubation at 25° C. on a shaker, 200 μL of the reaction mixture was added to Sephadex LH-20 columns (Pharmacia Biotech, Piscataway, N.J., U.S.A.,1.8 mL bed volume) equilibrated with LH-20 assay buffer (20 mM Tris buffer, pH 7.2, 5 mM β-mercaptoethanol and 0.05% sodium azide).
SDS-PAGE electrophoresis: The protein from the gel filtration fraction was analyzed for purity using 10% SDS-PAGE electrophoresis in the presence and absence of mercaptoethanol and visualized using DAIICHI-II silver staining. […] The data were analyzed using EBDA and Ligand computer programs.

[4] = Storage stability of FK-506 in frozen blood; type: physicochemical; settings: frozen (-20° C.) blood
Description: The competition-type PBA was conducted as follows. […] Following a 20-minute incubation at 25° C., 100 μL of a reaction mixture was added to a 1.8 mL bed volume Sephadex LH-20 column preequilibrated with 20 mM Tris buffer, pH 7.2-5 mM 2-mercaptoethanol-0.05% NaN3. Elution with five 250 μL portions of this buffer completely separated free from protein-bound radioligand. The protein-bound radioactivity in the 1.25 mL of eluate was measured in 10 mL Optima Gold Scintillation Cocktail (Packard Chemicals, Meriden, Conn.) in a liquid scintillation spectrometer operating at 59% counting efficiency. […] All analyses were performed in duplicate.

[5] = tested on: 50-54 kDa binding protein (JURKAT cells)
Description: (§3) Association constants, specific binding activities, and numbers and types of binding sites can be obtained from Scatchard and Hill plots, using EBDA and LIGAND software.
(§4) Bound and free ligand were separated using the above-described LH-20 system.
(§5) The binding proteins purified in Example 5 were incubated with increasing amounts of labeled ligand and the binding data analyzed according to Scatchard.

[6] = biological target: 10-12 kDa binding protein (JURKAT cells) (Homo sapiens, UniProt P62942); settings: Scatchard analysis, 10-12 kDa (8-12 kDa) protein
Description: as §3, §5

[7] = tested on: 50-54 kDa binding protein (JURKAT cells); assay: Scatchard / direct binding to purified 50-54 kDa immunophilin
Description: as §3, §4, §5

[8] = tested on: calf thymus 50-54 kDa immunophilin; assay: Rotamase (peptidyl-prolyl cis-trans isomerase) assay, 50-54 kDa immunophilin; type: biochemical; design: key: no activity observed; settings: rotamase activity with this peptide as substrate
Description: (§1) Rotamase activity (cis-trans peptidyl-prolyl isomerase activity) may be assayed in purified immunophilins using the methods of Fischer et al., Nature, 337:476 (1989) and Lange et al., Nature 4 331:453 (1988), which are incorporated herein by reference.
(§2) Only peptidyl propyl cis-trans isomerase activity to kobs values of greater than about 0.5 min^-1 are considered significant. Values below this are not considered to be due to the catalytic properties of the protein being analyzed.

10-12 kDa immunophilin = assay: Rotamase (peptidyl-prolyl cis-trans isomerase) assay, 10-12 kDa immunophilin; type: biochemical; design: key: no activity observed; settings: rotamase activity with this peptide as substrate
Description: as §1, §2

Sequence of 10-12 kDa binding protein (JURKAT cells) (P62942 whole entry): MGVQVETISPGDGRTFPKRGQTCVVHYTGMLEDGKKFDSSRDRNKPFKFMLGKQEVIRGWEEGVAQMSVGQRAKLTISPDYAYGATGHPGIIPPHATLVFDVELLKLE

Compound	kobs, 50-54 kDa [8]	kobs, 10-12 kDa (10-12 kDa immunophilin)	further results
C=CCC1C=C(C)CC(C)CC(OC)C2OC(O)(C(=O)C(=O)N3CCCCC3C(=O)OC(C(C)=CC3CCC(O)C(OC)C3)C(C)C(O)CC1=O)C(C)CC2OC (stereo not drawn) [FK-506, tacrolimus]			inhibition of binding of [3H]-CsA to the 50-54 kDa protein ([1]; all concentrations tested): inhibited; inhibition of binding of [3H]-CSA ([2]; isoelectric focusing fraction at pH 6.29): inhibited; displacement of bound radioligand from the binding sites ([3]; 1 μM unlabelled drug, 20 min): > 95%; time without variability in assay results on storage [4]: at least 30 days; pKd [5]: 8.00 to 9.00 and ~8.70; binding capacity / specific binding activity [6]: about 0.5 nmol/mg; binding to purified 50-54 kDa binding protein [7]: bound
CC(C)C[C@H](NC(=O)[C@@H]1CCCN1C(=O)[C@H](C)NC(=O)[C@H](C)NC(=O)CCC(=O)O)C(=O)Nc1ccc([N+](=O)[O-])cc1 [Suc--Ala--Ala--Pro--Leu--pNA] (Suc-AAPL-pNA)	0.0075 s⁻¹	0.93 min^-1	
C[C@H](NC(=O)CCC(=O)O)C(=O)N[C@@H](CCC(N)=O)C(=O)N1CCC[C@H]1C(=O)N[C@@H](Cc1ccccc1)C(=O)Nc1ccc([N+](=O)[O-])cc1 [Suc--Ala--Gln--Pro--Phe--pNA] (Suc-AQPF-pNA)	0.00367 s⁻¹	0.23 min^-1	
C[C@H](NC(=O)CCC(=O)O)C(=O)N[C@@H](CCC(=O)O)C(=O)N1CCC[C@H]1C(=O)N[C@@H](Cc1ccccc1)C(=O)Nc1ccc([N+](=O)[O-])cc1 [Suc--Ala--Glu--Pro--Phe--pNA] (Suc-AEPF-pNA)	a	a	
C[C@H](NC(=O)CCC(=O)O)C(=O)NCC(=O)N1CCC[C@H]1C(=O)N[C@@H](Cc1ccccc1)C(=O)Nc1ccc([N+](=O)[O-])cc1 [Suc--Ala--Gly--Pro--Phe--pNA] (Suc-AGPF-pNA)	0.00667 s⁻¹	a	
C[C@H](NC(=O)CCC(=O)O)C(=O)N[C@@H](Cc1c[nH]cn1)C(=O)N1CCC[C@H]1C(=O)N[C@@H](Cc1ccccc1)C(=O)Nc1ccc([N+](=O)[O-])cc1 [Suc--Ala--His--Pro--Phe--pNA] (Suc-AHPF-pNA)	0.001 s⁻¹	a	
CC[C@H](C)[C@H](NC(=O)[C@H](C)NC(=O)CCC(=O)O)C(=O)N1CCC[C@H]1C(=O)N[C@@H](Cc1ccccc1)C(=O)Nc1ccc([N+](=O)[O-])cc1 [Suc--Ala--Ile--Pro--Phe--pNA] (Suc-AIPF-pNA)	0.00033 s⁻¹	0.69 min^-1	
CC(C)C[C@H](NC(=O)[C@H](C)NC(=O)CCC(=O)O)C(=O)N1CCC[C@H]1C(=O)N[C@@H](Cc1ccccc1)C(=O)Nc1ccc([N+](=O)[O-])cc1 [Suc--Ala--Leu--Pro--Phe--pNA] (Suc-ALPF-pNA)	0.00267 s⁻¹	1.61 min^-1	
C[C@H](NC(=O)CCC(=O)O)C(=O)N[C@@H](CCCCN)C(=O)N1CCC[C@H]1C(=O)N[C@@H](Cc1ccccc1)C(=O)Nc1ccc([N+](=O)[O-])cc1 [Suc--Ala--Lys--Pro--Phe--pNA]	0.004 s⁻¹	0.36 min^-1	
CCCC[C@H](NC(=O)[C@H](C)NC(=O)CCC(=O)O)C(=O)N1CCC[C@H]1C(=O)N[C@@H](Cc1ccccc1)C(=O)Nc1ccc([N+](=O)[O-])cc1 [Suc--Ala--Nle--Pro--Phe--pNA]	0.00417 s⁻¹	0.58 min^-1	
C[C@H](NC(=O)CCC(=O)O)C(=O)N[C@@H](Cc1ccccc1)C(=O)N1CCC[C@H]1C(=O)N[C@@H](Cc1ccccc1)C(=O)Nc1ccc([N+](=O)[O-])cc1 [Suc--Ala--Phe--Pro--Phe--pNA]	0.003 s⁻¹	3.0 min^-1	
C[C@H](NC(=O)CCC(=O)O)C(=O)N[C@@H](Cc1c[nH]c2ccccc12)C(=O)N1CCC[C@H]1C(=O)N[C@@H](Cc1ccccc1)C(=O)Nc1ccc([N+](=O)[O-])cc1 [Suc--Ala--Trp--Pro--Phe--pNA] (Suc-AWPF-pNA)	0.00233 s⁻¹	0.21 min^-1	
O=C(O)CCC(=O)N[C@@H](Cc1ccccc1)C(=O)N1CCC[C@H]1C(=O)N[C@@H](Cc1ccccc1)C(=O)Nc1ccc([N+](=O)[O-])cc1 [Suc--Phe--Pro--Phe--pNA] (Suc-Phe-Pro-Phe-pNA)	0.001 s⁻¹	0.63 min^-1	
CO[C@H]1C[C@@H]2CC[C@@H](C)[C@@](O)(O2)C(=O)C(=O)N2CCCC[C@H]2C(=O)O[C@H]([C@H](C)C[C@@H]2CC[C@@H](O)[C@H](OC)C2)CC(=O)[C@H](C)/C=C(\C)[C@@H](O)[C@@H](OC)C(=O)[C@H](C)C[C@H](C)/C=C/C=C/C=C/1C [rapamycin]			pIC50 ([1]; 1.8 pmol [3H-dihydro]-FK-506, 15 minutes at 25° C., read-out: B50, inhibition of [3H-dihydro]-FK506 binding): 10.00; effect on binding of [3H]-CSA to the 50-54 kDa protein ([1]; concentrations as high as 300 nM): not affected; inhibition of [3H-dihydro]-FK-506 binding in all fractions ([2]; 0.7 (unit uncertain)): inhibited; competition for CsA binding to 16-18 kDa and 50-54 kDa fractions ([2]; 70 (unit uncertain)): did not compete; binding to purified 50-54 kDa binding protein [7]: bound; pKd ([7]; read-out: dissociation constant, 50-54 kDa protein, unit inferred): 9.70 to 10.00
CCC[C@@H]1/C=C(\C)C[C@H](C)C[C@H](OC)[C@H]2O[C@@](O)(C(=O)C(=O)N3CCCC[C@H]3C(=O)O[C@H](/C(C)=C/[C@@H]3CC[C@@H](O)[C@H](OC)C3)[C@H](C)[C@@H](O)CC1=O)[C@H](C)C[C@@H]2OC [tritiated dihydro FK506]			pKd ([3]; saturation experiments, 0.25 to 20 nM): 8.35
[3H]CC([3H])C[C@@H]1/C=C(\C)C[C@H](C)C[C@H](OC)[C@H]2O[C@@](O)(C(=O)C(=O)N3CCCC[C@H]3C(=O)O[C@H](/C(C)=C/[C@@H]3CC[C@@H](O)[C@H](OC)C3)[C@H](C)[C@@H](O)CC1=O)[C@H](C)C[C@@H]2OC (stereo partly drawn) [tritiated dihydro FK506]			Hill coefficients ([3]; saturation experiments): near unity
